Test results reported in patent US20240417410A1, “TRICYCLIC COMPOUNDS FOR THE TREATMENT OF CANCER” (Hoffmann-La Roche Inc., priority 2023, published 2024).

Legend:
[1] = tested on: WT KRAS-BRAF complex; test: WT KRAS-BRAF with CYPA interaction assay (TR-FRET); format: biochemical
Method: In this example, TR-FRET was used to measure the compound or compound-CYPA dependent disruption of the KRAS G12V-BRAF complex to assess inhibition efficacy. The IC50 ratio between WT KRAS/HRAS/NRAS and KRAS G12V mutant was calculated as selective index, which indicated tolerability and safety profile. Disruption of WT KRAS/HRAS/NRAS-BRAF complex by compounds was detected respectively. In assay buffer containing 25 mM HEPES (PH-7.4,4-(2-hydroxyethyl)-1-piperazineethanesulfonic acid, Thermo, 15630080), 0.002% Tween20, 0.1% BSA, 100 mM NaCl, 5 mM MgCl2, 10 μM GMPPNP (Guanosine 5′-[β,γ-imido]triphosphate trisodium salt hydrate, Sigma, G0635), tagless CYPA and GMPPNP loaded 6His-RAS proteins, and GST-BRAF^RBD were mixed in a well of a 384-well assay plate at final concentrations of 50 nM, 6.25 nM and 1 nM, respectively. Compound was present in plate wells as a 16-point 3-fold dilution series starting at a final concentration of 10 μM and incubated for 3 hours. A mixture of MAb Anti-6His-XL665 (Cisbio, 61HISXLB) and Mab anti-GST-TB cryptate (Cisbio, 61GSTTLB) was then added at a final concentration of 6.67 nM and 0.21 nM, respectively, and the plate was incubated for an additional 1.5 hours. TR-FRET signal was read on a PHERstar FSX microplate reader (Ex320 nm, Em 665/615 nm). Compounds that facilitate disruption of the RAS-BRAF complex were identified as those eliciting a decrease in the TR-FRET ratio relative to DMSO control wells.

[2] = tested on: Miapaca-2 KRAS G12C + D92R; test: Stable KRAS mutant cell line viability assay (CellTiter-Glo); format: cell-based; conditions: Miapaca-2 mutant cells, 3 d
Description: (§1) The aim of the study was to determine the potency and efficacy of compounds for cell proliferation using CellTiter-Glo® (CTG) Luminescent Cell Viability Assay (Promega Corp., Madison, WI). We cloned 14 KRAS^G12C variant sequences with secondary mutations (V8A, V9Y, S17E, T58I, A59T, S65W, R68S, D69P, M72I, D92R, H95N, Y96D, Q99W and F156L) into the Miapaca-2. Totally 14 stable Miapaca-2 mutant cell lines were established through lentivirus infection. For the cell viability assay, cells were dosed with compounds in a 9-point dose-response using a 4 fold dilution series at a top dose of 10 μM. KRAS mutant cells were maintained in DMEM+10% FBS+2.5% HI Horse serum+1% PS+1 μg/mL Puromycin and seeded into 96-well plates at 800-1,500 cells per well 24 h before compound addition and then incubated with compound for 3 d before assaying viability (CellTiter-Glo, Promega). Assays were performed in biological duplicates. Nonlinear regression curves were fitted using Xfit. IC50 (absolute IC50) is the dose at which the estimated viability is 50% relative to untreated wells.

[3] = tested on: Miapaca-2 KRAS G12C + V9Y; test: as above; format: cell-based; conditions: Miapaca-2 mutant cells, 3 d
Description: as §1

[4] = tested on: Miapaca-2 KRAS G12C + R68S; test: as above; format: cell-based; conditions: Miapaca-2 mutant cells, 3 d
Description: as §1

[5] = tested on: Miapaca-2 KRAS G12C + M72I; test: as above; format: cell-based; conditions: Homo sapiens, MIA PaCa-2, 72 h; Miapaca-2 mutant cells, 3 d
Description: as §1

[6] = tested on: Miapaca-2 KRAS G12C + F156L; test: as above; format: cell-based; conditions: Miapaca-2 mutant cells, 3 d
Description: as §1

[7] = tested on: Miapaca-2 KRAS G12C + T58I; test: as above; format: cell-based; conditions: Miapaca-2 mutant cells, 3 d
Description: as §1

`CO[C@@H](C)c1ncc(N2CCN(C)CC2)cc1-c1c2c3cc(cc4c3n1CCC4)-c1csc(n1)C[C@H](NC(=O)[C@H]1[C@H](C)[C@@H]1C)C(=O)N1CCC[C@H](N1)C(=O)OCC(C)(C)C2` (atropisomer, axis not shown; (M)) [Example 24, (1r,2R,3S)-N-[(7S,13S)-(20M)-20-[2-[(1S)-1-methoxyethyl]-5-(4-methylpiperazin-1-yl)-3-pyridyl]-17,17-dimethyl-8,14-dioxo-15-oxa-4-thia-9,21,30,31-tetrazahexacyclo[23.3.1.1^2,5.1^9,13.0^19,27.0^21,26]hentriaconta-1 (28),2,5 (31), 19,25 (29),26-hexaen-7-yl]-2,3-dimethyl-cyclopropanecarboxamide] was tested. Which “Selectivity Index (IC50 ratio) WT KRAS/KRAS G12V” value [1] did it give?
Its value is 4.6.

And the IC50 [2]?
The IC50 was 2 nM.

And the IC50 [3]?
The IC50 was 1 nM.

And the IC50 [4]?
Its IC50 is 2 nM.

What about the IC50 [5] of the same compound?
The IC50 was 1 nM.

And the IC50 [6]?
The IC50 was 1 nM.

And the IC50 [7]?
Its IC50 is 2 nM.
